Results reported in patent publication US20240254138A1, “TRICYCLIC PYRIMIDINES AS CYCLIN-DEPENDENT KINASE 7 (CDK7) INHIBITORS” (JANSSEN PHARMACEUTICA NV, priority 2021, published 2024).

How the values were obtained:
[1] = tested on: RNA Polymerase II Serine 5 phosphorylation in A549 cells overexpressing CDK7-mutant (C312S); assay: Imaging-based cellular RNA PolII Ser5 phosphorylation assay in A549 cells overexpressing CDK7-mutant (C312S); format: cell-based, human; conditions: RNA PolII Ser5 phosphorylation, averaged over all measurements; for IC50: Homo sapiens, A549, A549 cells overexpressing CDK7-mutant (C312S), read-out: CDK7_A549 mutant hCDK7(pIC50) (converted); for CDK7_A549 mutant hCDK7(pIC50): A549 cells overexpressing CDK7-mutant (C312S)
Source text: (§1) To evaluate inhibition of CDK7 kinase activity, a 384-well automated imaging assay was used. This assay detects Serine 5 phosphorylation on a unique heptapeptide sequence in the C-terminal domain of Rpb1 subunit of RNA polymerase II, the downstream substrate of CDK7. This heptapeptide sequence is repeated up to 52 times in the CTD of Rpb1.
(§2) A549 adenocarcinoma human alveolar basal epithelial cells (ATCC, CCL-185), rabbit Phospho-Rpb1 CTD (Ser5) antibody (D9N51 (Cell Signaling Technology)), DMEM (Sigma), Fetal Bovine Serum (Biowest), L-glutamine (Sigma), Penicillin/Streptomycin (Life Technologies), Sodium Pyruvate (Sigma), Hepes (Sigma), poly-D-lysine coated μclear 384 black plates (Greiner), formaldehyde (PolySciences), D-PBS (Sigma), Methanol (Sigma), Alexa Fluor 488 goat anti rabbit IgG secondary antibody (Life Technologies), HCS CellMask™ Deep Red stain (Life Technologies), Hoechst 33258 (Invitrogen).
(§3) RNA Polymerase II Serine 5 phosphorylation was detected using a specific rabbit Phospho-Rpb1 CTD (Ser5) antibody. A549 adenocarcinoma human alveolar basal epithelial cells were seeded in 20 μl medium (DMEM supplemented with 1% Fetal Bovine Serum (heat inactivated 30′ 56° C.), 2 mM L-glutamine, 50 U/ml penicillin 50 μg/ml streptomycin, 1 mM sodium pyruvate and 50 mM hepes) at 1000 cells/well and cultured in poly-D-lysine coated μclear 384 black plates for 20 hours at 37° C. and 5% CO2.
(§4) After incubation cells were challenged with compound for 3 hours at 37° C. and 5% CO2. DMSO was used as high control and as low control 10 μM of the following reference compound was used:
(§5) 40 nl of test compounds and controls were spotted in cell plates using Echo Liquid Handler (Echo 550, Labcyte). Incubation was followed by 20 minutes fixation with 20 μl 10% formaldehyde at room temperature. Medium/formaldehyde solution was removed, plates were washed 3 times with 30 μl D-PBS (w/o Ca^2+ and Ma^2+) and permeabilization was done by adding 20 μl ice cold methanol for 20 minutes. Cells were washed again 3 times with 30 μl D-PBS and 20 μl blocking buffer (25 ml fetal bovine serum in 500 ml D-PBS) was added for 1 hour.
(§6) After removing blocking buffer 20 μl 1/1000 primary antibody rabbit Phospho-Rpb1 CTD (Ser5) antibody was added which binds to the phosphorylated Serine5 of the heptapeptide sequences in the CTD of Rpb1. Primary antibody was removed, and plates were washed 3 times with 30 μl D-PBS followed by addition of 20 μl 1/2000 Alexa Fluor 488 goat anti rabbit IgG secondary antibody for final detection of Phospho-Rpb1 CTD (Ser5) together with 1/5000 HCS CellMask™ Deep Red stain for membrane staining and 1/5000 Hoechst 33258 for nucleus staining. Last, plates were washed 2 times with 30 μl D-PBS and wells were filled with 40 μL D-PBS, plates were sealed (Thermowell sealing tape) and stored at 4° C. until reading. Plates were read with Opera Phenix (Perkin Elmer) with 10× air objective. Data were calculated and analyzed in Phaedra.
(§7) IC50 values were calculated using the following formula: […]
(§8) Average value of all HC's and all LC's are used for normalizations.
(§9) A best-fit curve is fitted by a minimum sum of squares method to the plot of % Control vs. compound concentration. From this an IC50 value can be obtained. An estimate of the slope of the plot in terms of the Hill coefficient is also obtained.
In parallel this assay was performed in A549 cells overexpressing CDK7-mutant (C312S) to evaluate the effect of the covalent bond on potency and to screen for potential off-target effects. Mutation of Cysteine to Serine (C312S), a less nucleophilic amino acid, prevents CDK7 inhibitors from covalently binding to CDK7 and from inhibiting CDK7 activity in an irreversible manner. A stably transduced A549 cell pool was generated that overexpresses CDK7 mutant (C312S), but also expresses endogenous CDK7-WT. Covalent binders targeting the cysteine at position 312 will show a shift in potency in A549 cells overexpressing mutant C312S CDK7.

[2] = tested on: RNA Polymerase II Serine 5 phosphorylation (Rpb1 CTD, downstream substrate of CDK7) in A549 cells; assay: Imaging-based cellular RNA PolII Ser5 phosphorylation assay in A549 cells; format: cell-based, human; conditions: wild-type CDK7, RNA PolII Ser5 phosphorylation, averaged over all measurements; for CDK7_A549 Wild-type CDK7 (pIC50): A549 cells; for IC50: Homo sapiens, A549, A549 cells, read-out: CDK7_A549 Wild-type CDK7 (pIC50) (converted)
Source text: as §1, §2, §3, §4, §5, §6, §7, §8, §9

| IC50 [1] | CDK7_A549 Wild-type CDK7 (pIC50) [2] | CDK7_A549 mutant hCDK7(pIC50) [1] | IC50 [2] | SMILES |
| --- | --- | --- | --- | --- |
| > 10 µM | 5.68 |  |  | CC#CC(=O)N1CC[C@H](N2CC(c3cc4c(c(C)n3)O[C@H](C)c3c(N5CCOCC5)ccnc3N4)C2)C1 (single isomer, unassigned) [Compound 516] |
|  | 5.03 | <5 |  | CC#CC(=O)N1CC(N2CCC(c3cc4c(c(C)n3)O[C@H](C)c3c(N5CCOCC5)ccnc3N4)CC2)C1 (single isomer, unassigned) [Compound 524] |
|  | <5 | <5 |  | CC#CC(=O)N1CC[C@H](N2CC(c3cc4c(c(C)n3)O[C@H](C)c3c(N5CCOCC5)ccnc3N4)C2)C1 (single isomer, unassigned) [Compound 530] |
|  | <5 | <5 |  | CC#CC(=O)N1CC[C@@H](N2CC(c3cc4c(c(C)n3)O[C@H](C)c3c(N5CCOCC5)ccnc3N4)C2)C1 (single isomer, unassigned) [Compound 531] |
|  | 6.33 | <5 |  | CC#CC(=O)N1CC[C@H](N2CC(c3cc4c(c(C)n3)O[C@@H](C)c3c(N5CCOCC5)ccnc3N4)C2)C1 (single isomer, unassigned) [Compound 533] |
| > 10 µM |  |  | ~9.55 µM | CC#CC(=O)N1CC(N2CCC(c3cc4c(c(C)n3)O[C@@H](C)c3c(-c5cnn(C)c5)ccnc3N4)CC2)C1 (single isomer, unassigned) [Compound 534] |
| ~10 µM |  |  | 0.0631 µM | CC#CC(=O)N1CCC(N2CCC(c3cc4c(c(C)n3)O[C@@H](C)c3c(N5CCOCC5)ccnc3N4)CC2)C1 (single isomer, unassigned) [Compound 535] |
| > 10 µM |  |  | 2.95 µM | CC#CC(=O)N1CCC(N2CC(c3cc4c(c(C#N)n3)O[C@H](C)c3c(N5CCOCC5)ccnc3N4)C2)CC1 (single isomer, unassigned) [Compound 544] |
| 2.82 µM |  |  | 0.117 µM | CC#CC(=O)N1CCC(N2CC(c3cc4c(c(C#N)n3)O[C@@H](C)c3c(N5CCOCC5)ccnc3N4)C2)CC1 (single isomer, unassigned) [Compound 545] |
| > 10 µM |  |  | > 10 µM | C=CC(=O)N1CCC(Cc2ccc3c(c2)Nc2nccc(-c4cncc(C)c4)c2CO3)C1 (centres unmarked) [Compound 5] |
| > 10 µM |  |  | ~9.33 µM | C=CC(=O)N1CCC(Cc2ccc3c(c2)Nc2nccc(-c4cnccc4C)c2CO3)C1 (centres unmarked) [Compound 6] |
| > 10 µM |  |  | 0.0589 µM | C=CC(=O)N1CC(N2CCC(c3cc(C)c4c(c3)Nc3nccc(N5CCOCC5)c3CO4)CC2)C1 [Compound 20] |
|  | 7.34 | <5 |  | C=CC(=O)N1CC(N2CCC(c3cc(C)c4c(c3)Nc3nccc(N5CCOCC5)c3CO4)CC2)C1 [Compound 21] |
| > 10 µM |  |  | ~10 µM | C/C=C/C(=O)N1CC(N2CCC(c3ccc4c(c3)Nc3nccc(N5CCOCC5)c3CO4)CC2)C1 [Compound 106] |
| > 10 µM |  |  | 6.61 µM | C=CC(=O)N1CCC(N2CC(c3ccc4c(c3C)Nc3nccc(C5CCOCC5)c3CO4)C2)CC1 [Compound 131] |
| > 10 µM |  |  | 0.0776 µM | C#CCCN(C)C/C=C/C(=O)N1CC(N2CCC(c3cc(Cl)c4c(c3)Nc3nccc(N5CCOCC5)c3CO4)CC2)C1 [Compound 168] |
|  | 6.97 | <5 |  | C=CC(=O)N1CC(N2CCC(c3ccc4c(c3)Nc3nccc(C5CCOCC5)c3CO4)CC2)C1 [Compound 254] |
| > 10 µM |  |  | ~10.2 µM | C=CC(=O)N1CC(N2CCOC(c3ccc4c(c3)OCc3c(N5CCOCC5)ccnc3N4)C2)C1 (centres unmarked) [Compound 266] |
| > 10 µM |  |  | 0.195 µM | CC#CC(=O)N1CC(N2CCC(c3cc4c(c(C)n3)OCc3c(-c5cnn(C)c5)ccnc3N4)CC2)C1 [Compound 276] |

| IC50 [1] | CDK7_A549 Wild-type CDK7 (pIC50) [2] | CDK7_A549 mutant hCDK7(pIC50) [1] | IC50 [2] | SMILES |
| --- | --- | --- | --- | --- |
| > 10 µM |  |  | 0.126 µM | C=CC(=O)N1CC(c2nc(C)c(-c3cc4c(c(C)n3)OCc3c(N5CCOCC5)ccnc3N4)c(C)n2)C1 [Compound 280] |
| > 10 µM |  |  | > 10 µM | C=CC(=O)N1CCC(N2CC(c3cc4c(cn3)OC(C)(C)c3c(-c5cnn(C)c5)ccnc3N4)C2)CC1 [Compound 320] |
| 8.71 µM |  |  | 9.33 µM | CC(=O)N1CCC(N2CC(c3cc4c(c(C)n3)OCc3c(-c5cnn(C)c5)ccnc3N4)C2)CC1 [Compound 321] |
| > 10 µM |  |  | 0.191 µM | CC#CC(=O)N1CC(n2cc(-c3cc4c(c(C)n3)OCc3c(N5CCOCC5)ccnc3N4)cn2)C1 [Compound 346] |
| 6.92 µM |  |  | 0.372 µM | CC#CC(=O)N1CCC(n2cc(-c3cc(C)c4c(c3)Nc3nccc(N5CCOCC5)c3CO4)cn2)CC1 [Compound 381] |
| > 10 µM |  |  | > 10 µM | C=CC(=O)N1CC(N2CCC(c3cc4c(c(P(C)(C)=O)n3)OCc3c(N5CCOCC5)ccnc3N4)CC2)C1 [Compound 383] |
| 8.71 µM |  |  | 0.214 µM | C=CC(=O)N1CCC(n2cc(-c3cc4c(c(C)n3)OCc3c(N5CCOCC5)ccnc3N4)cn2)CC1 [Compound 390] |
| 7.76 µM |  |  | 1.91 µM | C=CC(=O)N1CCC(Oc2cc(-c3cc4c(c(C)n3)OCc3c(N5CCOCC5)ccnc3N4)ccn2)CC1 [Compound 407] |
| > 10 µM |  |  | > 10 µM | C=CC(=O)N1CCC(n2ccc(-c3ccc4c(c3)OCc3c(N5CCOCC5)ccnc3N4)cc2=O)CC1 [Compound 408] |
| 7.08 µM |  |  | 1.45 µM | CC#CC(=O)N1CCC(Oc2cc(-c3cc4c(c(C)n3)OCc3c(N5CCOCC5)ccnc3N4)ccn2)CC1 [Compound 409] |
| > 10 µM |  |  | 9.77 µM | CC#CC(=O)N1CCC(n2ccc(-c3ccc4c(c3)OCc3c(N5CCOCC5)ccnc3N4)cc2=O)CC1 [Compound 412] |
| > 10 µM |  |  | > 10 µM | Cc1nc(C2CCN(C3CN(C(=O)/C=C/C(=O)O)C3)CC2)cc2c1OCc1c(-c3cnn(C)c3)ccnc1N2 [Compound 432] |
| > 10 µM |  |  | 0.302 µM | CC#CC(=O)N1CCC(C2CN(c3cc4c(c(C)n3)OCc3c(N5CCOCC5)ccnc3N4)C2)CC1 [Compound 451] |
| > 10 µM |  |  | > 10 µM | C=CC(=O)N1CCC2(CC1)CCN(c1cc3c(c(C)n1)OCc1c(-c4cnn(C)c4)ccnc1N3)CC2 [Compound 479] |
| 5.62 µM |  |  | 0.115 µM | CC#CC(=O)N1CCC(N2CC(c3cc4c(c(C#N)n3)OC(C)c3c(N5CCOCC5)ccnc3N4)C2)CC1 (centres unmarked) [Compound 511] |
| > 10 µM |  |  | 0.324 µM | CC#CC(=O)N1CC(N2CCC(c3cc4c(c(C#N)n3)OC(C)c3c(N5CCOCC5)ccnc3N4)CC2)C1 (centres unmarked) [Compound 514] |
| > 10 µM |  |  | > 10 µM | C/C=C/C(=O)N1CC(N2CCC(c3cc4c(c(C)n3)OCc3c(-c5cnn(C)c5)ccnc3N4)CC2)C1 [Compound 537] |
|  | 6.49 | <5 |  | CC#CC(=O)N1CC(N2CCC(c3cc4c(c(C)n3)OCc3c(-c5cnn(C)c5)ccnc3N4)CC2)C1 [Compound 538] |
